According to patent US12258342B2, “Class of DNA gyrase and/or topoisomerase IV inhibitors with activity against gram-positive and gram-negative bacteria” (Univerza v Ljubljani, priority 2018, dated 2025):
Converted amounts (≈) assume the structure as drawn.

Columns and labels:
[1] = test system: S. aureus ATCC 29213; assay: Microbroth dilution MIC (CLSI); details: Staphylococcus aureus, ATCC29213, read-out: MIC (μg/mL) S. aureus ATCC 29213
[2] = test system: E. faecalis ATCC 29212; assay: Microbroth dilution MIC (CLSI); details: Enterococcus faecalis, ATCC29212, read-out: MIC (μg/mL) E. faecalis ATCC 29212
[3] = target: E. coli DNA gyrase (Escherichia coli (strain K12), UniProt P0AES6); assay: DNA gyrase inhibition assay (Inspiralis, streptavidin-coated plates); assay type: biochemical
Experimental: Inhibitory activities for compounds of the present invention were determined on E. coli and S. aureus DNA gyrase and topoisomerase IV in an assay from Inspiralis on streptavidin-coated 96-well microtiter plates from Thermo scientific Pierce. […] After washing off the unbound oligonucleotide, the enzyme test was performed. […] Reaction solutions were incubated at 37° C. for 30 min. After that, the TF buffer (50 mM NaOAc with pH 5.0, 50 mM NaCl and 50 mM MgCl2) was added to terminate the enzymatic reaction. After additional incubation for 30 min at rt, during which biotin-oligonucleotide-plasmid triplex was formed, the unbound plasmid was washed off using TF buffer and SybrGOLD in T10 buffer (10 mM Tris HCl with pH 8.0 and 1 mM EDTA) was added. […] GraphPad Prism 6.0 software was used to calculate the IC50 values. The result is given as the average value of three independent measurements. […] Chemoth.

[4] = test system: E. coli ATCC 25922; assay: Microbroth dilution MIC (CLSI); details: Escherichia coli, ATCC25922, read-out: MIC (μg/mL) E. coli ATCC 25922

Compound	MIC [1] [µg/mL]	MIC [2] [µg/mL]	IC50 [3] [nM]	MIC [4] [µg/mL]
COC(=O)c1cc(N2CC[C@H](N)C2)c2nc(NC(=O)c3[nH]c(C)c(Cl)c3Cl)sc2c1.Cl [Example 34, (S)-1-(2-(3,4-dichloro-5-methyl-1H-pyrrole-2-carboxamido)-6-(methoxycarbonyl)benzo[d]thiazol-4-yl)pyrrolidin-3-aminium chloride]	≥ 32	≥ 32	48 ± 9	≥ 32
Cc1[nH]c(C(=O)Nc2nc3ccc(C(=O)O)cc3s2)c(Cl)c1Br [Example 45, 2-(4-bromo-3-chloro-5-methyl-1H-pyrrole-2-carboxamido) benzo[d]thiazole-6-carboxylic acid]	0.13 (≈ 0.314 µM)	0.0625 (≈ 0.151 µM)	< 5	> 64
O=C(O)c1cc(OCc2cc(=O)c(O)c[nH]2)c2nc(NC(=O)c3cc(Br)c(Br)[nH]3)sc2c1 [Example 38, 2-(4,5-dibromo-1H-pyrrole-2-carboxamido)-4-((5-hydroxy-4-oxo-1,4-dihydropyridin-2-yl)methoxy)benzo[d]thiazole-6-carboxylic acid]	> 64	> 64		> 64
Cc1[nH]c(C(=O)Nc2nc3c(OCc4ccccc4)cc(-c4nnn[nH]4)cc3s2)c(Cl)c1Cl [Example 29, N-(4-(benzyloxy)-6-(1H-tetrazol-5-yl)benzo[d]thiazol-2-yl)-3,4-dichloro-5-methyl-1H-pyrrole-2-carboxamide]	4 (≈ 7.99 µM)	0.125 (≈ 0.25 µM)		> 64
Cc1[nH]c(C(=O)Nc2nc3c(OCCN4CCOCC4)cc(C(=O)NCC#N)cc3s2)c(Cl)c1Cl.Cl [Example 25, 4-(2-((6-((cyanomethyl)carbamoyl)-2-(3,4-dichloro-5-methyl-1H-pyrrole-2-carboxamido)benzo[d]thiazol-4-yl)oxy)ethyl)morpholin-4-ium chloride]	> 64	> 64	< 5	> 64
Cc1[nH]c(C(=O)Nc2nc3c(OCc4ccccc4)cc(C(N)=O)cc3s2)c(Cl)c1Cl [Example 28, 4-(benzyloxy)-2-(3,4-dichloro-5-methyl-1H-pyrrole-2-carboxamido)benzo[d]thiazole-6-carboxamide]	> 64	> 64	11 ± 2	> 64
Cc1[nH]c(C(=O)N(c2nc3ccc(C(=O)O)cc3s2)C(C)C)c(Cl)c1Cl [Example 41, 2-(3,4-dichloro-N-isopropyl-5-methyl-1H-pyrrole-2-carboxamido)benzo[d]thiazole-6-carboxylic acid]	32 (≈ 77.6 µM)	32 (≈ 77.6 µM)	320 ± 70	≥ 32
Cc1[nH]c(C(=O)N(c2nc3ccc(C(=O)O)cc3s2)C2CC2)c(Cl)c1Cl [Example 42, 2-(3,4-dichloro-N-cyclopropyl-5-methyl-1H-pyrrole-2-carboxamido)benzo[d]thiazole-6-carboxylic acid]	2 (≈ 4.87 µM)	0.25 (≈ 0.609 µM)	24 ± 1	> 64
Cc1[nH]c(C(=O)Nc2nc3c(N4CC[C@H](NC(=O)OC(C)(C)C)C4)cc(C(=O)O)cc3s2)c(Cl)c1Cl [Example 35, (S)-4-(3-((tert-butoxycarbonyl)amino)pyrrolidin-1-yl)-2-(3,4-dichloro-5-methyl-1H-pyrrole-2-carboxamido)benzo[d]thiazole-6-carboxylic acid]	0.25 (≈ 0.451 µM)	0.0312 (≈ 0.0564 µM)	< 5	≥ 32
CCN(C(=O)c1[nH]c(C)c(Cl)c1Cl)c1nc2ccc(C(=O)O)cc2s1 [Example 43, 2-(3,4-dichloro-N-ethyl-5-methyl-1H-pyrrole-2-carboxamido)benzo[d]thiazole-6-carboxylic acid]	0.13 (≈ 0.326 µM)	0.13 (≈ 0.326 µM)	7.2 ± 2	32 (≈ 80.3 µM)
Cc1[nH]c(C(=O)Nc2nc3c(OCc4ccccc4)cc(C(=O)NCC#N)cc3s2)c(Cl)c1Cl [Example 27, 4-(benzyloxy)-N-(cyanomethyl)-2-(3,4-dichloro-5-methyl-1H-pyrrole-2-carboxamido)benzo[d]thiazole-6-carboxamide]	4 (≈ 7.78 µM)	16 (≈ 31.1 µM)	5.4 ± 2	> 64
